From patent US10519211B2, “Compounds as peptidic GLP1/glucagon/GIP receptor agonists” (SANOFI, priority 2016, dated 2019)
Numbered stars: 1 amine (or outer) side, 2 acyl side, 3 side chain; on linkers, the order of the positions; unused ones are H or OH. Square brackets hold non-standard residues; d marks the D form. Side chains are listed from the residue outwards. Peptide text beside a SMILES is read from it. * marks the point of attachment. γGlu = O=C(O)[C@H](CCC(=O)[*:2])N[*:1]; Palmitoyl = CCCCCCCCCCCCCCCC(=O)*; Aib = CC(C)(N)C(=O)O

Target: T1, human GLP-1 receptor (hGLP-1 R) (Homo sapiens, UniProt P43220)
T1 construct: expressed in transfected cells; host or cells: HEK-293
Assay: cAMP response (HTRF) of HEK-293 cells stably expressing human GLP-1 receptor
Assay type: cell-based
Settings: Table 8; cAMP formation
Method: cAMP content of cells was determined using a kit from Cisbio Corp. (cat. no. 62AM4PEJ) based on HTRF (Homogenous Time Resolved Fluorescence). For preparation, cells were split into T175 culture flasks and grown overnight to near confluency in medium (DMEM/10% FBS). Medium was then removed and cells washed with PBS lacking calcium and magnesium, followed by proteinase treatment with accutase (Sigma-Aldrich cat. no. A6964). Detached cells were washed and resuspended in assay buffer (1×HBSS; 20 mM HEPES, 0.1% BSA, 2 mM IBMX) and cellular density determined. They were then diluted to 400000 cells/ml and 25 μl-aliquots dispensed into the wells of 96-well plates. For measurement, 25 μl of test compound in assay buffer was added to the wells, followed by incubation for 30 minutes at room temperature.
Potencies of peptidic compounds at the GLP-1, glucagon and GIP receptors were determined by exposing cells expressing human glucagon receptor (hGlucagon R), human GIP receptor (hGIP-R) or human GLP-1 receptor (hGLP-1 R) to the listed compounds at increasing concentrations and measuring the formed cAMP as described in Methods.

T1 sequence (P43220 24-463): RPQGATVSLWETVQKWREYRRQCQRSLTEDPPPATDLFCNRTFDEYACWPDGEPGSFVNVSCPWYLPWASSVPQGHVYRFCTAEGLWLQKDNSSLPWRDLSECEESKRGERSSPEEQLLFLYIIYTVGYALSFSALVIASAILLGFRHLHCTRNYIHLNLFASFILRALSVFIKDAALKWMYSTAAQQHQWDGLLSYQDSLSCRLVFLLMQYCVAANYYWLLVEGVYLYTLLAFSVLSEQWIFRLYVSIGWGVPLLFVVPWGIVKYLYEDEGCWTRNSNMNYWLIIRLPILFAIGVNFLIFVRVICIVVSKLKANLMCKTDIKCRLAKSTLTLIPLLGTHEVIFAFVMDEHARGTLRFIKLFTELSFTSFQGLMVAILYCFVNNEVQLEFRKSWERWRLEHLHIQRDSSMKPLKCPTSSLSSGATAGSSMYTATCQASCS

SMILES: CCCCCCCCCCCCCCCC(=O)N[C@@H](CCC(=O)N[C@@H](CCC(=O)NCCCC[C@H](NC(=O)[C@H](CC(C)C)NC(=O)[C@H](CCCCN)NC(=O)[C@H](CO)NC(=O)[C@H](CC(C)C)NC(=O)[C@H](CC(=O)O)NC(=O)[C@H](CO)NC(=O)[C@@H](NC(=O)[C@H](Cc1ccccc1)NC(=O)[C@@H](NC(=O)CNC(=O)[C@H](CCC(N)=O)NC(=O)C(C)(C)NC(=O)[C@@H](N)Cc1c[nH]cn1)[C@@H](C)O)[C@@H](C)O)C(=O)N[C@@H](CCC(=O)O)C(=O)N[C@@H](CCC(=O)O)C(=O)N[C@@H](CCC(N)=O)C(=O)N[C@@H](CCCNC(=N)N)C(=O)N[C@@H](CCC(N)=O)C(=O)NC(C)(C)C(=O)N[C@@H](CCC(=O)O)C(=O)N[C@@H](Cc1ccccc1)C(=O)N[C@H](C(=O)N[C@@H](CCC(=O)O)C(=O)N[C@@H](Cc1c[nH]c2ccccc12)C(=O)N[C@@H](CC(C)C)C(=O)N[C@@H](CCCCN)C(=O)N[C@@H](C)C(=O)N[C@H](C)C(=O)NCC(=O)N1CCC[C@H]1C(=O)N1CCC[C@H]1C(=O)N[C@@H](CO)C(=O)NC(C)(C)C(=O)N[C@@H](CCCCN)C(=O)N1CCC[C@H]1C(=O)N1CCC[C@H]1C(=O)N1CCC[C@H]1C(=O)N[C@@H](CCCCN)C(N)=O)[C@@H](C)CC)C(=O)O)C(=O)O [SEQ ID NO: 10, H-Aib-Q-G-T-F-T-S-D-L-S-K-L-K[gGlu-gGlu-Palm]-E-E-Q-R-Q-Aib-E-F-I-E-W-L-K-A-dAla-G-P-P-S-Aib-K-P-P-P-K-NH2] (H-H[Aib]QGTFTSDLSKLK([γGlu-γGlu-Palmitoyl])EEQRQ[Aib]EFIEWLKA[dA]GPPS[Aib]KPPPK-NH2)
- EC50: 2.4 pM
